Experimental findings from US11603546B2, “Method for preparing modified starch and use thereof” (Qilu University of Technology, priority 2020, dated 2023) are described below.

Marks after values point to notes of the source that are not given here.

Assay [1] deals with mice with type II diabetes (STZ injection plus high-glucose-high-fat diet). In words: Type II diabetes mouse model: HE staining of liver sections. In kind it is in vivo, Kunming strain mice. Particulars: diabetic mice, intervention groups (FIGS. 9 to 13). The source says: Fifty mice were pregrouped and labeled. In the experiment, type II diabetes models were established by streptozotocin (STZ) injection plus induction by high-glucose-high-fat diet. […] The mice were randomized into five groups of 10 animals: normal group, diabetic control group, glimepiride group, RS group, and modified starch+GSPAs group; before modeling, the mice were weighed.
The normal group was fed with normal diet for three weeks, while the remaining four groups were fed with high-glucose-high-fat diet for three weeks; then, the animals were deprived of food hut not water for 12 h; […] (which was prepared with 0.1 mol/L citric acid-sodium citrate buffer solution [pH 4.4 (4.2-4.5)] at a low temperature) was prepared when needed, and was injected intraperitoneally at a single dose of 50 mg/kg (0.5 mg/10 g) of body weight within 30 min; the mice in the normal group were given isodose citric acid-sodium citrate buffer solution and injected at a dose of 50 mg/kg every three days, during which the mice were fed with high-glucose-high-fat diet. After 72 h, the mice were deprived of food but not water for 12 h, and blood was collected from the tail vein to test the fasting blood glucose (FBG); the mice with FBG≥12 mmol/1, with obesity and polyuria were considered as the criteria for successful modeling. […]

For assay [2] the test system is unchanged. In words: Type II diabetes mouse model: TC, TG, HDL-C, LDL-C. In kind it is in vivo, Kunming strain mice. As to conditions: diabetic mice, gavage once daily, four weeks. The source says:
Fifty mice were pregrouped and labeled. In the experiment, type II diabetes models were established by streptozotocin (STZ) injection plus induction by high-glucose-high-fat diet. […] The mice were randomized into five groups of 10 animals: normal group, diabetic control group, glimepiride group, RS group, and modified starch+GSPAs group; before modeling, the mice were weighed. […] The normal group was fed with normal diet for three weeks, while the remaining four groups were fed with high-glucose-high-fat diet for three weeks; then, the animals were deprived of food hut not water for 12 h; […] (which was prepared with 0.1 mol/L citric acid-sodium citrate buffer solution [pH 4.4 (4.2-4.5)] at a low temperature) was prepared when needed, and was injected intraperitoneally at a single dose of 50 mg/kg (0.5 mg/10 g) of body weight within 30 min; the mice in the normal group were given isodose citric acid-sodium citrate buffer solution and injected at a dose of 50 mg/kg every three days, during which the mice were fed with high-glucose-high-fat diet. After 72 h, the mice were deprived of food but not water for 12 h, and blood was collected from the tail vein to test the fasting blood glucose (FBG); the mice with FBG≥12 mmol/1, with obesity and polyuria were considered as the criteria for successful modeling. Ten normal and healthy mice were assigned to the normal group; the remaining successful modeled mice with type II diabetes were grouped into four groups of 10 animals according to the blood glucose level; the test period was four weeks. Specific groups are listed in Table 2: bw represents body weight. [table] Instructions for gavage dosing: The mice were administered by gavage once daily, in a volume of 0.4 mL. Also, total cholesterol (TC), triglyceride (TG), and low density lipoprotein cholesterol (LDL-C) were tested for diabetic mice, as shown in Table 3.

With `CCC1=C(C)CN(C(=O)NCCc2ccc(S(=O)(=O)NC(=O)N[C@H]3CC[C@H](C)CC3)cc2)C1=O` [Glimepiride, glimepiride], in assay [1], the “HE staining of liver sections” value is “improve symptoms of disordered liver cells and massive inflammatory cell infiltration”. In addition, in assay [2], the “High density lipid cholesterol (HDL-C)” value is listed as 2.26 ± 0.31^a mmol/L, the LDL-C is 0.65 ± 0.17^b mmol/L, the TC is on record as 3.16 ± 0.37^b mmol/L and the TG is reported as 1.06 ± 0.09^b mmol/L.
